In publication PMC8465649, “Semaphorin 3A—Glycosaminoglycans Interaction as Therapeutic Target for Axonal Regeneration” (Pharmaceuticals, 2021):

Key:
[1] = Potentiometric titration (protonation state); type: physicochemical; conditions: 25 °C, 0.15 M NaCl
Experimental: UV absorbance was measured using a SpectraMax M5 spectrophotometer (Molecular Devices, Sunnyvale, CA, USA). The experiments were performed with a 10 μM methylene blue (MB) solution in 5 mM Tris-HCl buffer at pH 7.5, to which increasing amounts of heparin were added to saturation of the MB dye. For the competition assays, solutions of MB and heparin at fixed concentrations were titrated with increasing amounts of SICHI or CSIC02–04 peptoids. Then, the relative increase in absorbance at 665 nm, due to release of MB from the MB–heparin complex when adding either SICHI or CSIC02–04 to the cuvette, can be plotted vs. the charge ratio considering their respective concentrations and that all the peptoids have three positive charges, and heparin has four negative charges per disaccharide unit. With this information, the charge excess for 50% of displacement of the MB dye (CE50) for each compound can be calculated for comparison. Potentiometric titrations were carried out in a reaction vessel thermostated with a water bath at 25.0 ± 0.1 °C under nitrogen atmosphere, and 0.15 M NaCl was used as the supporting electrolyte. The titrant was delivered by a precision microburette. The potentiometric measurements were made with a pH-mV meter. The reference electrode was an Ag/AgCl electrode in saturated KCl solution. The acquisition of the emf data was performed with the computer program Tiamo 2.3.1. […]

[2] = 1D 1H NMR titration with chondroitin sulfate; type: binding; conditions: increasing amounts of CS, pH 7.5
Text: As a simple way to characterize the GAG binding behavior, we applied the method previously described by Jiao et al., using the cationic dye known as methylene blue (MB) in a colorimetric competition assay. To compare with our previous results for SICHI, we performed similar experimental design and data analysis, using the charge excess at 50% of MB displacement (CE50) as the parameter to compare the respective binding abilities. The four peptoids rendered very similar CE50 values (CE50 = 1.5–1.8, Figure 6a), reflecting the equivalent charge states. However, CSIC02 reached saturation (complete MB displacement) with a lower number of equivalents, which can be due to its slightly larger molecular size that may cause a more efficient interference with MB binding. Next, we assessed the integrity and solubility of CSIC02 by NMR. To characterize its tendency to aggregate in aqueous solution, NMR spectra at increasing concentrations were acquired which show the same sharp signals under all conditions (Figure S13). […] Direct binding of CSIC02 to GAGs was qualitatively assessed by specific NMR experiments.
Figure S14. CSIC02 spectra with increasing amount of Chondroitin sulfate from shark
cartilage (0,5, 1,0. 1,5, 2,0. 2,5 and 3,0 mg). Spectra were acquired in 10 mM Tris-HCl/150
(1 picture or pasted object on this page, not shown here)

protonation state at neutral pH [1]: triprotonated
SMILES: CCN(CC)CCN(CC(=O)N(CCN1CCCC1)CC(=O)N(CCC1CCCN1C)CC(N)=O)C(=O)OCc1ccccc1 (centres unmarked) [CSIC02]
binding to chondroitin sulfate (qualitative) [2]: progressive shifting of CSIC02 resonances
